Results reported in US11439627B2, “Pharmaceutical composition for the treatment of autism” (Stalicla S.A., priority 2017, dated 2022).

Assays:
[1] = system: patients with autism spectrum disorder classified as Phenotype 1; experiment: ADI-r scores of ASD phenotype 1 patients under treatment; type: in vivo, human; settings: after four weeks of ibudilast 0.6 mg/kg daily total, TID
Procedure: A pharmaceutical composition comprising ibudilast and bumetanide was administered to patients with a diagnosis of autism spectrum disorder as defined in the DSM-5, or PDD-NOS or Asperger syndrome as defined in the DSM-IV. Eligibility criteria: male sex, age 5-50, no current chronic illness, no history of active seizures within 1 year, normal liver, renal and thyroid function. Concomitant medications were permitted if doses were stable for at least 60 days prior to the initiation of the challenge test. Patients with no syndromic or identified genetic etiology. […] Description: Four of the patients characterized as above were administered ibudilast. The four subjects had varying levels of functioning ranging from mild to severe, and varying different levels of verbal and intellectual abilities. IQ values ranged from 61 to 86. All were males. Four patients were treated with ibudilast at a daily total dosage of 0.6 mg/kg, TID. A new treatment regimen was introduced, this time ibudilast at a daily total dosage of 0.6 mg/kg, TID, was administered in conjunction with bumetanide at a daily total dosage of 0.08 mg/kg, BID (with a maximum upper daily dose of […]).

[2] = single dose of 10 mg, healthy adults, in 72 hours; cited from earlier work

Compound: CC(C)C(=O)c1c(C(C)C)nn2ccccc12 [ibudilast]
- ADI-r RI ([1]; Patient 1, baseline 7): 6
- ADI-r C ([1]; Patient 1, baseline 24): 20
- ADI-r SI ([1]; Patient 1, baseline 28): 21
- ADI-r RI ([1]; Patient 2, baseline 5): 5
- ADI-r C ([1]; Patient 2, baseline 19): 15
- ADI-r SI ([1]; Patient 2, baseline 20): 16
- ADI-r RI ([1]; Patient 3, baseline 7): 5
- ADI-r SI ([1]; Patient 3, baseline 14): 12
- ADI-r C ([1]; Patient 3, baseline 18): 14
- ADI-r RI ([1]; Patient 4, baseline 7): 7
- ADI-r C ([1]; Patient 4, baseline 17): 14
- ADI-r SI ([1]; Patient 4, baseline 27): 22
- dose excreted as metabolites in urine [2]: about 60%
